Test results as given in US20230303552A1, “ARYLSULFONYL DERIVATIVES AND THEIR USE AS MUSCARINIC ACETYLCHOLINE RECEPTOR M5 INHIBITORS” (Vanderbilt University, priority 2020, published 2023).
pIC50: −log10 of the molar value.

Biological target: T1, human M5 receptors (hM5) (Homo sapiens, UniProt P08912)
T1 construct: expressed in transfected cells
T1 sequence (P08912 1-532): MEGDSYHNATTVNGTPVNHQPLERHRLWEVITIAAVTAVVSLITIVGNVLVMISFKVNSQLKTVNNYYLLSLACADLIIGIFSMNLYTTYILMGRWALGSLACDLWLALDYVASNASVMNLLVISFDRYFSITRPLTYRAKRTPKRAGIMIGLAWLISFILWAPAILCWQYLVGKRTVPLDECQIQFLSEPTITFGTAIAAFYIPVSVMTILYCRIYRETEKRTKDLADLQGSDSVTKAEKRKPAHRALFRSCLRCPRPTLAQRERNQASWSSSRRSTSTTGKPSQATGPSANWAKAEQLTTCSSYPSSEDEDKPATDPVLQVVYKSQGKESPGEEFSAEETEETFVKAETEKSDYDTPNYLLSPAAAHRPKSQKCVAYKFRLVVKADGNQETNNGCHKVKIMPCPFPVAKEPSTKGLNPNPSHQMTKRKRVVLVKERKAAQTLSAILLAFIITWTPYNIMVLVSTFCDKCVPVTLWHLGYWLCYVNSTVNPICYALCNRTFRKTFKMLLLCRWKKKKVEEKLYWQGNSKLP
Assay: Cell-based functional calcium mobilization assay of mAChR M5 activity (inhibition of EC80 acetylcholine response) in CHO cells
Details: CHO cells stably expressing hM5; for pIC50: calcium flux (Fluo-4), EC80 acetylcholine addition; for EC80 MIN: minimum of EC80 acetylcholine response, normalized to maximum acetylcholine response
Method: All functional cell-based assays were performed essentially as previously described (Marlo et al., Mol.Pharm. 2009, 75(3), 577-588; Brady et al., J. Pharm. & Exp. Ther. 2008, 327, 941-953). Initial, single point (10 µM) competitive and non-competitive inhibitor characterization was performed in stable Chinese Hamster Ovary (CHO) cell lines constitutively expressing human M5 receptors. These were plated at 15,000 cells per 20 µL per well in Greiner 384-well black-walled, TC-treated, clear-bottomed plates (Fisher) in Ham’s F12 medium supplemented with 10% FBS and 20 mM HEPES. Cells were incubated overnight at 37° C. under 5% CO2. The following day, medium was exchanged with assay buffer (Hank’s Balanced Salt Solution supplemented with 20 mM HEPES and 2.5 mM Probenecid, pH 7.4) leaving 20 µL of assay buffer in each well. This was followed by the addition of 20 µL of 2.3 µM of Fluo-4 AM (Invitrogen) in assay buffer (final concentration 1.15 µM). The cells were then incubated 50 minutes at 37° C. under 5% CO2. The assay buffer plus dye was then exchanged with fresh assay buffer leaving a volume of 20 µL in each well. Test compounds were diluted into assay buffer to a 2X (20 µM) concentration in 0.2% dimethylsulfoxide (DMSO) in columns 3 - 22 with matching DMSO concentration in columns 1, 2, 23, and […]; compounds were added to the assay for a final concentration of 10 µM and a final DMSO concentration of 0.1%. Acetylcholine (Sigma-Aldrich) was prepared to provide 5X concentrations of EC20, EC80, and ECmax in the triple-addition assay, providing a signal window to view agonism, potentiation, and inhibition of the acetylcholine response as well as a means to normalize to the maximum acetylcholine response.
Either an FDSS (Hamamatsu) or Panoptic (WaveFront Biosciences) kinetic imaging plate reader was used for assay execution and measurement of calcium flux. After establishing baseline fluorescence, test compounds (20 µL) were added to the cells using the reader’s integrated pipettor and allowed to equilibrate for 140 seconds before addition of the EC20 concentration of acetylcholine (10 µL) along with vehicle in selected DMSO-only wells in the outer two columns. The EC80 concentration of acetylcholine (10 µL) was added 125 seconds after the EC20 addition along with ECmax concentration in the wells receiving vehicle in the second addition. The raw fluorescence data from each well was normalized to the corresponding initial fluorescence reading (static ratio). The maximum fluorescence value following each addition was determined and the minimum value within that same timeframe was subtracted for each well then normalized to the average of the ECmax maximum-minimum response, providing a %AChmax value for each addition for each well. The single point values represent mean values determined within the EC80 addition timeframe obtained from at least three independent determinations performed in triplicate or greater (error bars represent +/- SEM) unless otherwise specified.
Further characterization of competitive and non-competitive inhibitor compounds (compound potency and mAChR subtype-selectivity) was performed on the FDSS with calcium mobilization assays performed as previously described (Marlo et al., 2009; Brady et al., 2008) and in a format similar to that described above using the same reagents. CHO cells stably expressing hM1, hM2/Gqi5, hM3, hM4/Gqi5, hM5, rM1, rM2/Gqi5, rM3, rM4/Gqi5, or rMs were plated in the manner described above. A ten-point concentration range of test compound was serial diluted in assay buffer to 2X final concentration and acetylcholine was diluted in assay buffer to 5X of the EC20 and EC80 concentrations, determined empirically and 5X maximal (2 mM final concentration) stock concentrations. FDSS protocols were carried out as described above; the static ratio was calculated and the minimum response subtracted from the maximum response within the timeframe of each addition. […]

SMILES	pIC50	EC80 MIN [%]
Cc1cc2c(cc1S(=O)(=O)N1CCC(C(=O)Nc3ccc4scnc4c3)CC1)C(C)CO2 (racemic) [Compound 145, (rac)-N-(benzo[d]thiazol-5-yl)-1-((3,6-dimethyl-2,3-dihydrobenzofuran-5-yl)sulfonyl)piperidine-a-carboxamide]	5.86	3
Cn1ncc(S(=O)(=O)N2CC[C@H](C(=O)Nc3ccc4scnc4c3)[C@@H](F)C2)c1Cl (racemic) [Compound 159, trans-(rac)-N-(benzo[d]thiazol-5-yl)-1-((5-chloro-1-methyl-1H-pyrazol-4-yl)sulfonyl)-3-fluoropiperidine-4-carboxamide]	8.00	2
Cc1ncc(S(=O)(=O)N2CC[C@H](C(=O)Nc3ccc4scnc4c3)[C@@H](F)C2)s1 (racemic) [Compound 160, trans-(rac)-N-(benzo[d]thiazol-5-yl)-3-fluoro-1-((2-methylthiazol-5-yl)sulfonyl)piperidine-4-carboxamide]	7.89	2
O=C(Nc1ccc2scnc2c1)C1CCN(S(=O)(=O)c2ccc3c(c2)CCO3)CC1 [Compound 2, N-(benzo[d]thiazol-5-yl)-1-((2,3-dihydrobenzofuran-5-yl)sulfonyl)piperidine-4-carboxamide]	7.14	2
Cc1nn(C)cc1S(=O)(=O)N1CCC(C(=O)Nc2ccc3scnc3c2)CC1 [Compound 5, N-(benzo[d]thiazol-5-yl)-1-((1,3-dimethyl-1H-pyrazol-4-yl)sulfonyl)piperidine-4-carboxamide]	6.52	2
O=C(Nc1ccc2[nH]cnc2c1)C1CCN(S(=O)(=O)c2ccc3c(c2)CCO3)CC1 [Compound 13, N-(1H-benzo[d]imidazol-5-yl)-1-((2,3-dihydrobenzofuran-5-yl)sulfonyl)piperidine-4-carboxamide]	< 5.00	22
O=C(Nc1ccc2scnc2c1)C1CN(S(=O)(=O)c2ccc3c(c2)CCO3)C1 [Compound 16, N-(benzo[d]thiazol-5-yl)-1-((2,3-dihydrobenzofuran-5-yl)sulfonyl)azetidine-3-carboxamide]	5.75	2
Cc1noc(C)c1S(=O)(=O)N1CCC(C(=O)Nc2ccc3scnc3c2)CC1 [Compound 17, N-(benzo[d]thiazol-5-yl)-1-((3.5-dimcthylisoxazol-4-yl)sulfonyl)piperidine-4-carboxamide]	6.12	3
Cc1nc(C(F)(F)F)c(S(=O)(=O)N2CCC(C(=O)Nc3ccc4scnc4c3)CC2)s1 [Compound 19, N-(benzo[d]thiazol-5-yl)-1-((2-methyl-4-(trifluoromcthyl)thiazol-5-yl)sulfonyl)piperidine-4-carboxamide]	5.50	19
Cn1cnc(S(=O)(=O)N2CCC(C(=O)Nc3ccc4scnc4c3)CC2)c1 [Compound 20, N-(benzo[d]thiazol-5-yl)-1-((1-methyl-1H-imidazol-4-yl)sulfonyl)piperidine-4-carboxamide]	< 5.00	49
CC1(C(=O)Nc2ccc3scnc3c2)CN(S(=O)(=O)c2ccc3c(c2)CCO3)C1 [Compound 22, N-(benzo[d]thiazol-5-yl)-1-((2,3-dihydrobenzofuran-5-yl)sulfonyl)-3-methylazetidine-3-carboxamide]	< 5.00	43

Further lines, results first:

pIC50	EC80 MIN [%]	SMILES
6.96	3	CC1COc2ccc(S(=O)(=O)N3CCC(C(=O)Nc4ccc5scnc5c4)CC3)cc21 (racemic) [Compound 131, (rac)-N-(benzo[d]thiazol-5-yl)-1-((3-methyl-2,3-dihydrobenzofuran-5-yl)sulfonyl)piperidine-4-carboxamide]
6.24	3	C[C@@H]1C[C@@H](C(=O)Nc2ccc3scnc3c2)CCN1S(=O)(=O)c1ccc2ncsc2c1 (racemic) [Compound 134, trans-(rac)-N-(benzo[d]thiazol-5-yl)-1-(benzo[d]thiazol-6-ylsulfonyl)-2-methylpiperidine-4-carboxamide]
5.56	3	O=C(Nc1ccc2scnc2c1)C1CCN(S(=O)(=O)c2ccc(Cl)s2)CC1 [Compound 1, N-(benzo[d]thiazol-5-yl)-1-((5-chlorothiophen-2-yl)sulfonyl)piperidine-4-carboxamide]
6.17	5	O=C(Nc1ccc2scnc2c1)C1CCN(S(=O)(=O)c2ccc3ncsc3c2)CC1 [Compound 3, N-(benzo[d]thiazol-5-yl)-1-(benzo[d]thiazol-6-ylsulfonyl)piperidine-4-carboxamide]
6.02	2	O=C(Nc1ccc2scnc2c1)C1CCN(S(=O)(=O)c2ccc3ncccc3c2)CC1 [Compound 4, N-(benzo[d]thiazol-5-yl)-1-(quinolin-6-ylsulfonyl)piperidine-4-carboxamide]
6.74	4	O=C(Nc1ccc2scnc2c1)C1CCN(S(=O)(=O)c2ccc(Cl)nc2)CC1 [Compound 7, N-(benzo[d]thiazol-5-yl)-1-((6-chloropyridin-3-yl)sulfonyl)piperidine-4-carboxamide]
< 5.00	23	O=C(Nc1ccc2scnc2c1)C1CCN(S(=O)(=O)c2ccsc2)CC1 [Compound 8, N-(benzo[d]thiazol-5-yl)-1-(thiophen-3-ylsulfonyl)piperidine-4-carboxamide]
< 5.00	38	N#Cc1cc(S(=O)(=O)N2CCC(C(=O)Nc3ccc4scnc4c3)CC2)ccc1Cl [Compound 9, N-(benzo[d]thiazol-5-yl)-1-((4-chloro-3-cyanophenyl)sulfonyl)piperidine-4-carboxamide]
5.88	3	COc1ccc(S(=O)(=O)N2CCC(C(=O)Nc3ccc4scnc4c3)CC2)cn1 [Compound 10, N-(benzo[d]thiazol-5-yl)-1-((6-methoxypyridin-3-yl)sulfonyl)piperidine-4-carboxamide]
< 5.00	52	O=C(Nc1ccc2scnc2c1)C1CCN(S(=O)(=O)c2ccc(C(F)(F)F)nc2)CC1 [Compound 11, N-(benzo[d]thiazol-5-yl)-1-((6-(trifluoromethyl)pyridin-3-yl)sulfonyl)piperidine-4-carboxamide]
7.25	2	O=C(Nc1ccc2scnc2c1)C1CCN(S(=O)(=O)c2cccnc2)CC1 [Compound 18, N-(benzo[d]thiazol-5-yl)-1-(pyridin-3-ylsulfonyl)piperidine-4-carboxamide]
6.36	3	O=C(Nc1ccc2scnc2c1)C1CCN(S(=O)(=O)c2cccc3nsnc23)CC1 [Compound 21, 1-(benzo[c][1,2,5]thiadiazol-4-ylsulfonyl)-N-(benzo[d]thiazol-5-yl)piperidine-4-carboxamide]
